This is an account of results in PMC4976923, “Potent Allosteric Dengue Virus NS5 Polymerase Inhibitors: Mechanism of Action and Resistance Profiling” (PLoS Pathogens, 2016).

The structures appear in SMILES notation.

Experiment [1] addresses DENV4 RdRp domain (aa 268–900) (Dengue virus type 4, UniProt P09866). The experiment can be described thus: Thermo-denaturation assay, recombinant RdRp domain. It is filed as binding. The conditions noted are these: +50 μM compound; DMSO control 50. As to the method:
Site-directed alanine mutations of DENV4 FL NS5 cDNA were performed using pET28-D4-MY01-22713 NS5FL [23] as a template, according to the manufacturer’s protocol (Stratagene, USA). Protein expressions of DENV1-4 FL NS5 and their stability analyses by thermo-fluorescence were performed as described previously. DENV de novo initiation and elongation FAPA assays were earlier described. […]
(§1) 6 Fi g .5. Ef fects of N -pocket compounds on DENV pol ymerase thermo-stability. Melting
(§2) 7 temperatur e (Tm) w as ass essed b y thermo-d enatur ation in presence of the S YPRO Oran ge
(§3) 8 dye as described in Materials and Methods. (A-F) Representative meltin g curves of DEN V4
10 inhibitors or 5 % DMSO control. […]
(§4) 16 controls treated with DMSO.

For experiment [2], the target named is T1, FL NS5 from BHK-21 DENV2-NGC replicon cell lysate (Dengue virus type 2, UniProt P14340).
T1 construct: FL NS5 from DENV-replicon lysates; expressed in transfected cells; host or cells: BHK-21 cells carrying a DENV2 (New Guinea C) sub-genomic replicon
The experiment can be described thus: Cellular thermal shift assay with replicon cell lysate. It is filed as binding. The conditions noted are these: +50 μM compound; DMSO control 42.5.
Excerpt: 1 Fig. 4.Ph ylo genetic tr ee repres enting relatedn ess of N-pocket amino acid residues from
2 different members of the Flavivirus famil y, derived from Clustal Omega program [ 8] .
as §1, §2, §3
10 inhibitors or 5 % DMSO control. (G) Cellular thermal shifts assays [ 9] wer e perfo rmed with
Bri efl y, l ysates w er e
12 incubated with compounds or 5 % DMSO for 1 hr at 4 °C, followed b y heating at 30- 70 °C.
13 Samples were spun and the supernat ants loaded onto 12 % SDS -PAGE gel s , followed b y gel
14 electrophoresis and west ern blotting with anti- DE NV2 NS5 antibody (GeneTex, USA). Table
as §4
(1 picture or pasted object on this page, not shown here)

The next experiment concerns the target T2, DENV2 FL NS5 WT (Dengue virus type 2, UniProt P14340).
T2 construct: compared against activities of WT DENV2 or DENV4 FL NS5 proteins; made in house
It is filed as binding. The conditions noted are these: 50 µM compound; for Protein melting temperature, Tm, DENV2 FL NS5 WT: DMSO 35.5.

The target of the next experiment is T3, DENV2 FL NS5 E802D (Dengue virus type 2, UniProt P14340, E3293D).
T3 construct: Recombinant DENV2 (A, C) and DENV4 (B, D) FL NS5 proteins bearing single or double amino acid changes; made in house
It is filed as binding. As to conditions: 50 µM compound; for Protein melting temperature, Tm, DENV2 FL NS5 E802D: DMSO 36.

The next experiment deals with T4, DENV4 FL NS5 Q802N (Dengue virus type 4, UniProt P09866, Q3290N).
T4 construct: made in house
It is filed as binding. The conditions noted are these: 50 µM compound; for Protein melting temperature, Tm, DENV4 FL NS5 Q802N: DMSO 37.

A further experiment deals with T5, DENV4 FL NS5 L512V/Q802N (Dengue virus type 4, UniProt P09866, L2999V/Q3290N).
T5 construct: made in house
It is filed as binding. As to conditions: 50 µM compound; for Protein melting temperature, Tm, DENV4 FL NS5 L512V/Q802N: DMSO 36.

The subject of experiment [3] is DENV2-NGC Ren-LUC Replicon in BHK21. Nature of the experiment: Stable BHK21 DENV2-NGC renilla luciferase replicon assay. It is filed as cell-based. The conditions noted are these: Dengue virus, DENV2, BHK-21; 48 hr.
Another experiment addresses DENV4 RdRp (Dengue virus type 4, UniProt P09866). Nature of the experiment: Surface plasmon resonance binding assay (Biacore T200).

T5 sequence (P09866 2488-3387 L2999V/Q3290N): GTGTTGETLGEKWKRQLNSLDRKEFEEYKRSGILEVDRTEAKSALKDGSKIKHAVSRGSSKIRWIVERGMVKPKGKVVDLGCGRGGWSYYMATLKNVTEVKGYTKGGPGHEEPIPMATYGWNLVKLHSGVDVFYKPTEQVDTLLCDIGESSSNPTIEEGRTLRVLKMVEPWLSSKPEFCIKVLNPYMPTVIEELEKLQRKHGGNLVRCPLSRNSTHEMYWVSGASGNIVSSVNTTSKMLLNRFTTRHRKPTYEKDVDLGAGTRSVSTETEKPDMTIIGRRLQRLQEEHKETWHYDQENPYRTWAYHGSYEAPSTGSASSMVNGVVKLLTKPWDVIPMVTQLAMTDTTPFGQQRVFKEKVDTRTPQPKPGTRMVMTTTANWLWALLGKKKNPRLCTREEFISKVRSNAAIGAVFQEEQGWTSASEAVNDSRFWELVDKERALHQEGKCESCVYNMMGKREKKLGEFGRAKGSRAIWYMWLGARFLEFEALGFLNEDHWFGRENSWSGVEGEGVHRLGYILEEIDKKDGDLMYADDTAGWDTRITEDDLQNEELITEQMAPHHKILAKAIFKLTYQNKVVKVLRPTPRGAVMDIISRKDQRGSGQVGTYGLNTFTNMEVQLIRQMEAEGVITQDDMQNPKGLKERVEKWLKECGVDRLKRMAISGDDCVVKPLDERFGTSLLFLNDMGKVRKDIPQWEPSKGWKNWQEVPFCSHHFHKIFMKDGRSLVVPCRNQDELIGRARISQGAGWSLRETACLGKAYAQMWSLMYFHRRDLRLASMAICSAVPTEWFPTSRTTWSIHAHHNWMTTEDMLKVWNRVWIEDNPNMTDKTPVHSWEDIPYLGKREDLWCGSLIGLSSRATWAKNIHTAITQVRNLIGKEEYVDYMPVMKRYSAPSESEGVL
T4 sequence (P09866 2488-3387 Q3290N): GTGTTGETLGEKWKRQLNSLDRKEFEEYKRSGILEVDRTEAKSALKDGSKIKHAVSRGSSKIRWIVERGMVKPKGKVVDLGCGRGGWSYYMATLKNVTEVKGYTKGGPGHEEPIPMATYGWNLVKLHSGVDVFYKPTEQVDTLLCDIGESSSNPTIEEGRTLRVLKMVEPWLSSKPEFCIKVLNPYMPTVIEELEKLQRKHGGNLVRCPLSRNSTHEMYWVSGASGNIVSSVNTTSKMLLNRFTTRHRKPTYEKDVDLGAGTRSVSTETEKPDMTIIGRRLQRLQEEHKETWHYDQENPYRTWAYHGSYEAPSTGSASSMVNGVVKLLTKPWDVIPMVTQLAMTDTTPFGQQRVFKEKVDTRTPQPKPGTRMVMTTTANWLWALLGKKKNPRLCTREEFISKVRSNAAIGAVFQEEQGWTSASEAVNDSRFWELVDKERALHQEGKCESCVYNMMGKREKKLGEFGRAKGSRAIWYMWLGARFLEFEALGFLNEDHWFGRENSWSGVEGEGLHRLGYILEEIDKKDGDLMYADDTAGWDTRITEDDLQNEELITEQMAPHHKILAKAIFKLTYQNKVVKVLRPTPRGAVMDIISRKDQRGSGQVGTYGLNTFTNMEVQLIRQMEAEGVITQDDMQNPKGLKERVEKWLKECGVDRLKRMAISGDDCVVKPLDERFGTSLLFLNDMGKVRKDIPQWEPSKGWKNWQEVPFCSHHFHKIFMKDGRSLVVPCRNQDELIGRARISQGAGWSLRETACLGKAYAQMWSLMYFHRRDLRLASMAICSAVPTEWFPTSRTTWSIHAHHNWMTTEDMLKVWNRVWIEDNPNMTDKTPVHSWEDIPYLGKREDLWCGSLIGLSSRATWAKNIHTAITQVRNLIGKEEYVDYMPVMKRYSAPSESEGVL
Chain of DENV4 RdRp domain (aa 268–900) (P09866 2753-3387): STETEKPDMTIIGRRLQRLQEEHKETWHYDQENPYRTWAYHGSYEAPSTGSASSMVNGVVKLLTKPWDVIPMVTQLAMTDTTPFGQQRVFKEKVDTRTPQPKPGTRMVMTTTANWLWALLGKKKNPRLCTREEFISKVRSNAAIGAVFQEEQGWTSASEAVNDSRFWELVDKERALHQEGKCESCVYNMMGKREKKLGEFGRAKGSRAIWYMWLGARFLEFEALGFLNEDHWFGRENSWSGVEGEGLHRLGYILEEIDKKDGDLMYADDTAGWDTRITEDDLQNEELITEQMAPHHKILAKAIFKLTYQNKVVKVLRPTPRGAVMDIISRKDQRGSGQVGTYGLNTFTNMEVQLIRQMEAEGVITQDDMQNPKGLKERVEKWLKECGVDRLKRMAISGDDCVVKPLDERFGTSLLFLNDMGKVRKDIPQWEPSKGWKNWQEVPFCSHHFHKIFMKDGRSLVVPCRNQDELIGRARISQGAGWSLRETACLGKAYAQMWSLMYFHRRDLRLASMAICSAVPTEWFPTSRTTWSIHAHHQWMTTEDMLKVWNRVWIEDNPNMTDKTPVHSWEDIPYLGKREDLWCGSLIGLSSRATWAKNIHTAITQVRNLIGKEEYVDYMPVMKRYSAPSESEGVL
Chain of DENV4 RdRp (P09866 2753-3387): as above

On to `COc1cccc(S(=O)(=O)NC(=O)c2cc(-c3ccc(C#CCO)s3)c(OC)cc2OC)c1` [Compound 27], for which, in experiment [1], the “Protein melting temperature Tm with compound, RdRp domain” value is 58 °C. For the same molecule, the “Protein melting temperature Tm with compound, FL NS5 from BHK-21 DENV2-NGC replicon cell lysate” value in experiment [2] is 47.5 °C. For the same molecule, at DENV2 FL NS5 WT, the “Tm change compared to DMSO control, DENV2 FL NS5 WT” value came out at 1.5 °C and the “Protein melting temperature, Tm, DENV2 FL NS5 WT” value was found to be 37 °C. In addition, on DENV2 FL NS5 E802D, the “Tm change compared to DMSO control, DENV2 FL NS5 E802D” value came out at 0 °C and the “Protein melting temperature, Tm, DENV2 FL NS5 E802D” value was 36 °C. For the same molecule, at DENV4 FL NS5 Q802N, the “Tm change compared to DMSO control, DENV4 FL NS5 Q802N” value turned out to be 0.5 °C and the “Protein melting temperature, Tm, DENV4 FL NS5 Q802N” value was determined as 37.5 °C. In addition, at DENV4 FL NS5 L512V/Q802N, the “Tm change compared to DMSO control, DENV4 FL NS5 L512V/Q802N” value is -1 °C and the “Protein melting temperature, Tm, DENV4 FL NS5 L512V/Q802N” value was found to be 35 °C. Moreover, a half-maximal effect in experiment [3] (EC50) was put at 3 µM. For the same molecule, the “SPR % Rmax” value at DENV4 RdRp is listed as 66.8%.

`COc1cc(OC)c(-c2ccc(C#CCO)s2)cc1C(=O)NS(=O)(=O)c1cccc2cccnc12` [Compound 29]: the “Protein melting temperature Tm with compound, RdRp domain” value in experiment [1] came out at 64 °C. Moreover, in experiment [2], the “Protein melting temperature Tm with compound, FL NS5 from BHK-21 DENV2-NGC replicon cell lysate” value is 50 °C. For the same molecule, on DENV2 FL NS5 WT, the “Tm change compared to DMSO control, DENV2 FL NS5 WT” value worked out at 4.5 °C and the “Protein melting temperature, Tm, DENV2 FL NS5 WT” value came out at 40 °C. Besides, at DENV2 FL NS5 E802D, the “Tm change compared to DMSO control, DENV2 FL NS5 E802D” value amounted to 2.0 °C and the “Protein melting temperature, Tm, DENV2 FL NS5 E802D” value was determined as 38 °C. At DENV4 FL NS5 Q802N, the “Tm change compared to DMSO control, DENV4 FL NS5 Q802N” value is 1.5 °C and the “Protein melting temperature, Tm, DENV4 FL NS5 Q802N” value stood at 38.5 °C. In addition, at DENV4 FL NS5 L512V/Q802N, the “Tm change compared to DMSO control, DENV4 FL NS5 L512V/Q802N” value is -0.5 °C and the “Protein melting temperature, Tm, DENV4 FL NS5 L512V/Q802N” value was found to be 35.5 °C. In experiment [3], this molecule displayed an EC50 of 4.6 µM. On DENV4 RdRp, the “SPR % Rmax” value amounted to 20.9%.
